The test system of data set [1] is Aspergillus fumigatus IHEM 18963 (NCPF 7367). Nature of the data set: CLSI broth dilution antifungal susceptibility (microplates). It is filed as cell-based. The note with it: for MIC: NCPF7367, 48 hours of incubation, read-out: MIC100 (48 h); for MIC100 (48 h): 48 hours of incubation. On the procedure:
(§1) The above strains were contacted with oleyl phosphocholine on microplates and the anti-fungal activity of oleyl phosphocholine was determined. In comparison, the same test was performed using amphotericin B (AMB), voriconazole (VRZ) and itraconazole (ITR). The test protocol used was in conformity with the standard CLSI method: Clinical and Laboratory Standards Institute/National Committee for Clinical Laboratory Standards (2002) Reference method for broth dilution antifungal susceptibility testing of yeasts. […] Clinical and Laboratory Standards Institute/National Committee for Clinical Laboratory Standards Institute, Wayne Pa. Clinical and Laboratory Standards Institute/National Committee for Clinical Laboratory Standards. (2002) Reference method for broth dilution antifungal susceptibility testing of filamentous fungi. Approved Standard document M38-A. Clinical and Laboratory Standards Institute/National Committee for Clinical Laboratory Standards Institute, Wayne […]
In general terms: In broth dilution the organism is exposed to a series of concentrations in liquid medium.

The test system of data set [2] is Aspergillus niger IHEM 5788 (ATCC 10864). The description is as above. It is filed as cell-based. The note with it: for MIC: ATCC10864, 48 hours of incubation, read-out: MIC100 (48 h); for MIC100 (48 h): 48 hours of incubation. The protocol:
as §1

Data set [3] has as its system Aspergillus terreus IHEM 13669 (clinical isolate). The description is as above. The note with it: 48 hours of incubation; for MIC: read-out: MIC100 (48 h). It is filed as cell-based. On the procedure:
as §1

Data set [4] relates to Candida albicans IHEM 3731 (ATCC 10231). Described as above. It is filed as cell-based. The note with it: for MIC50: ATCC10231, 48 hours of incubation, inhibits growth of 50%; for MIC100 (48 h): 48 hours of incubation, inhibits growth of 100%. The protocol:
as §1

The subject of data set [5] is Candida glabrata IHEM 19371 (clinical blood isolate). The description is as above. It is filed as cell-based. The settings on record: 48 hours of incubation; for MIC50: Nakaseomyces glabratus, inhibits growth of 50%; for MIC100 (48 h): inhibits growth of 100%. The protocol:
as §1

Data set [6] deals with Candida krusei IHEM 9560 (ATCC 6258). Described as above. It is filed as cell-based. The note with it: for MIC50: Pichia kudriavzevii, ATCC6258, 48 hours of incubation, inhibits growth of 50%; for MIC100 (48 h): 48 hours of incubation, inhibits growth of 100%. On the procedure: as §1
Data set [7] concerns Candida parapsilosis IHEM 3270 (ATCC 22019). The description is as above. It is filed as cell-based. The note with it: for MIC50: Lodderomyces parapsilosis, ATCC22019, 48 hours of incubation, inhibits growth of 50%; for MIC100 (48 h): 48 hours of incubation, inhibits growth of 100%. On the procedure: as §1
The subject of data set [8] is Fusarium solani IHEM 18489 (clinical isolate). The data set is described as above. It is filed as cell-based. The settings on record: 48 hours of incubation; for MIC: read-out: MIC100 (48 h). On the procedure: as §1
In data set [9] the test system is Scedosporium prolificans IHEM 22387 (clinical blood isolate). Described as above. It is filed as cell-based. The settings on record: 48 hours of incubation; for MIC: Lomentospora prolificans, read-out: MIC100 (48 h). The protocol:
as §1

Data set [10] relates to Candida albicans IHEM 19114 (clinical blood isolate resistant for voriconazole and itraconazole). Described as above. It is filed as cell-based. The settings on record: Candida albicans IHEM 19114 (resistant), 48 hours of incubation; for MIC50: inhibits growth of 50%; for MIC100 (48 h): inhibits growth of 100%. The protocol:
The following ten strains were tested for assaying the anti-fungal activity of oleyl phosphocholine.
The above strains were contacted with oleyl phosphocholine on microplates and the anti-fungal activity of oleyl phosphocholine was determined. In comparison, the same test was performed using amphotericin B (AMB), voriconazole (VRZ) and itraconazole (ITR).
The test protocol used was in conformity with the standard CLSI method:
Clinical and Laboratory Standards Institute/National Committee for Clinical Laboratory Standards (2002) Reference method for broth dilution antifungal susceptibility testing of yeasts. Approved Standard document M27-A2. Clinical and Laboratory Standards Institute/National Committee for Clinical Laboratory Standards Institute, Wayne Pa. Clinical and Laboratory Standards Institute/National Committee for Clinical Laboratory Standards. (2002) Reference method for broth dilution antifungal susceptibility testing of filamentous fungi. Approved Standard document M38-A. Clinical and Laboratory Standards Institute/National Committee for Clinical Laboratory Standards Institute, Wayne
The results, after visual and spectrophometric reading after 48 hours of incubation, are presented as MIC50 and MIC 100, i.e. the minimum inhibitory concentration required inhibiting the growth of 50% or 100% of the microorganisms, respectively.

For a further data set, the system named is Candida yeast. The note with it: patients with culture-proven candidemia; cited from earlier work.
Data set [11] deals with Aspergillus fumigatus B19119. Nature of the data set: In vitro efficacy against yeasts and fungi (microplates). It is filed as cell-based. The protocol: (§2) The above strains were contacted oleyl phosphocholine on microplates and the anti-fungal activity of oleyl phosphocholine was determined. Anti-fungal activity was expressed as IC50, i.e. the concentration oleyl phosphocholine needed to kill 50% of the pathogens.

The test system of data set [12] is Aspergillus fumigatus B42928. The description is as above. It is filed as cell-based. The protocol:
as §2

Another data set has as its system Aspergillus fumigatus. The description is as above. It is filed as cell-based. The protocol: as §2
Data set [13] relates to Candida albicans B59630 (R). The data set is described as above. It is filed as cell-based. On the procedure: as §2
Data set [14] concerns Candida albicans B63195 (S). Described as above. It is filed as cell-based. On the procedure: as §2
Another data set has as its system Candida albicans. The description is as above. It is filed as cell-based. The settings on record: concentration needed to kill 50% of the pathogens. The protocol: as §2
Data set [15] has as its system Candida parapsilosis B66126. The data set is described as above. It is filed as cell-based. On the procedure: as §2
Data set [16] concerns Cryptococcus neoformans B66663. The data set is described as above. It is filed as cell-based. The protocol:
as §2

The next data set deals with Cryptococcus neoformans. Described as above. It is filed as cell-based. The protocol:
as §2

Data set [17] deals with Fusarium oxysporum IHEM3014. The data set is described as above. It is filed as cell-based. On the procedure: as §2
For data set [18], the system named is Fusarium solani IHEM22128. The description is as above. It is filed as cell-based. The protocol:
as §2

A further data set concerns Microsporum canis. Described as above. It is filed as cell-based. The protocol: as §2
The subject of data set [19] is Sporothrix schenkii B62482. The data set is described as above. It is filed as cell-based. On the procedure: as §2
The subject of the next data set is Sporothrix schenkii. The data set is described as above. It is filed as cell-based. On the procedure:
as §2

The test system of data set [20] is Trichophyton mentagrophytes B70554. The description is as above. It is filed as cell-based. The protocol: as §2
In data set [21] the test system is Trichophyton rubrum B68183. Described as above. It is filed as cell-based. The protocol:
as §2

In a further data set the test system is Trichophyton rubrum. Described as above. It is filed as cell-based. The protocol: as §2
The conditions of data set [22]: people taking itraconazole; cited from earlier work.

pIC50: −log10 of the molar value. Converted amounts (≈) assume the structure as drawn.

As for `C[C@@H](c1ncncc1F)[C@](O)(Cn1cncn1)c1ccc(F)cc1F` [VRZ, voriconazole], the MIC in data set [1] stood at 1 µg/mL (≈ 2.86 µM); in data set [2] it was 1 µg/mL (≈ 2.86 µM); in [3] it was 0.5 µg/mL (≈ 1.43 µM); in data set [8], 16 µg/mL (≈ 45.8 µM); in data set [9] it was 16 µg/mL (≈ 45.8 µM). The MIC50 in data set [4] was 0.064 µg/mL (≈ 0.183 µM); in [5] it was 0.25 µg/mL (≈ 0.716 µM); in data set [6] it was 0.5 µg/mL (≈ 1.43 µM); in [7], 0.125 µg/mL (≈ 0.358 µM); in [10] it was > 16 µg/mL.
`C[C@@H]1[C@H](O)[C@@H](C)/C=C/C=C/C=C/C=C/C=C/C=C/C=C/[C@H](O[C@@H]2O[C@H](C)[C@@H](O)[C@H](N)[C@@H]2O)C[C@@H]2O[C@](O)(C[C@@H](O)C[C@@H](O)[C@H](O)CC[C@@H](O)C[C@@H](O)CC(=O)O[C@H]1C)C[C@H](O)[C@H]2C(=O)O` [AMB, amphotericin B]: the “MIC100 (48 h)” value is 2 µg/mL (≈ 2.16 µM) in [1]; 1 µg/mL (≈ 1.08 µM) in [2]; >8 µg/mL in data set [3]; 0.5 µg/mL (≈ 0.541 µM) in data set [4]; 0.5 µg/mL (≈ 0.541 µM) in [5]; 1 µg/mL (≈ 1.08 µM) in data set [6]. The “MIC100 (48 h)” value in data set [7] was 1 µg/mL (≈ 1.08 µM); in data set [8] it was 2 µg/mL (≈ 2.16 µM); in data set [9], >8 µg/mL; in data set [10], 0.5 µg/mL (≈ 0.541 µM). The “time to clear Candida yeast from the bloodstream (median)” value in the data set with Candida yeast was 2 days.
Take `CCCCCCCC/C=C\CCCCCCCCOP(=O)([O-])OCC[N+](C)(C)C` [OlPC, oleyl phosphocholine]: the “MIC100 (48 h)” value in data set [1] was 5 µg/mL (≈ 11.5 µM); in [2], 10 µg/mL (≈ 23.1 µM); in data set [3] it was 10 µg/mL (≈ 23.1 µM); in data set [4] it was 2.5 µg/mL (≈ 5.77 µM); in [5], 5 µg/mL (≈ 11.5 µM); in data set [6], 5 µg/mL (≈ 11.5 µM). Further, the “MIC100 (48 h)” value stood at 5 µg/mL (≈ 11.5 µM) in data set [7], 5 µg/mL (≈ 11.5 µM) in data set [8], 5 µg/mL (≈ 11.5 µM) in [9] and 2.5 µg/mL (≈ 5.77 µM) in data set [10]. The pIC50 in data set [11] is 5.73; in data set [12] it was 5.10; in the data set with Aspergillus fumigatus, 4.73; in [13] it was 5.10; in [14], 5.11; with Candida albicans, 5.10. Besides, the pIC50 in data set [15] is 5.10; in [16], 6.30; in the data set on Cryptococcus neoformans, 5.35; in data set [17], 5.59; in [18], 5.64; with Microsporum canis, 5.78. Further, the pIC50 in [19] was 5.71; with Sporothrix schenkii it was 5.09; in data set [20], 5.70; in data set [21], 5.70; in the data set on Trichophyton rubrum it was 5.23.
For `CCC(C)n1ncn(-c2ccc(N3CCN(c4ccc(OCC5COC(Cn6cncn6)(c6ccc(Cl)cc6Cl)O5)cc4)CC3)cc2)c1=O` (centres unmarked) [ITR, itraconazole], the MIC was 0.5 µg/mL (≈ 0.709 µM) in data set [1]; 0.5 µg/mL (≈ 0.709 µM) in [2]; 0.25 µg/mL (≈ 0.354 µM) in data set [3]; > 16 µg/mL in data set [8]; > 16 µg/mL in data set [9]. The MIC50 in [4] was 0.032 µg/mL (≈ 0.0453 µM); in data set [5] it was 0.5 µg/mL (≈ 0.709 µM); in data set [6] it was 0.25 µg/mL (≈ 0.354 µM); in [7] it was 0.064 µg/mL (≈ 0.0907 µM); in [10] it was > 16 µg/mL. In data set [22], the “people with elevated alanine aminotransferase levels” value is on record as 4%.

For orientation: MIC50 means an inhibitory concentration at the 50% level, which refers to growth in some studies and to a panel of isolates in others. Broadly, the pIC50 is the negative decadic logarithm of the IC50, by convention in mol/L. A low value points to a large IC50.

(Values after US20130345177A1, “Oleyl Phosphocholine for the Treatment of Mycosis” (DAFRA PHARMA RESEARCH & DEVELOPMENT BVBA, priority 2011, published 2013).)
